Structures can show the parent of a compound that is named as a salt. Where two headings read alike, the source gives them in different places.
System: iCell cardiomyocytes (human iPSC-derived cardiomyocytes)
Test: High-content imaging of cytotoxicity and mitochondrial integrity in iPSC-CMs
Format: cell-based
Conditions: Homo sapiens; for viability at 0.01 µM / activity at 0.01 µM / viability at 0.1 µM / activity at 0.1 µM / viability at 1 µM / activity at 1 µM / viability at 10 µM / activity at 10 µM / viability at 100 µM / activity at 100 µM: Cardiomyocyte, 0.00 µM = 100.00; for viability at 0.1 µM / activity at 0.1 µM: 0.10 µM; for minimal effective concentration: iPSC-CM
Outline: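 Human iPSC-derived cardiomyocytes were seeded on gelatin-coated 384-well plates at 5,000 cells per well and maintained for 12 d. Test chemicals were added as 10μL of 5× solutions to final concentrations of 0.01 to 100μM. Cells were stained with Hoechst 33342 and MitoTracker™ Orange, fixed in formaldehyde, and imaged by confocal high-content microscopy at 10× magnification.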

Structure (SMILES): O=S(=O)(O)Oc1cccc(-c2ccc(Cl)cc2)c1 [3'-yl PCB 3 sulfate]
- viability at 0.01 µM (1.5 h, read-out: cm.cam.90min): 99.5%
- activity at 0.01 µM (1.5 h, read-out: cm.mii.90min): 98.4%
- activity at 0.01 µM (1.5 h, read-out: cm.mito.90min): 99.8%
- viability at 0.01 µM (1.5 h, read-out: cm.tc.90min): 99.9%
- viability at 0.1 µM (1.5 h, read-out: cm.cam.90min): 98.2%
- activity at 0.1 µM (1.5 h, read-out: cm.mii.90min): 97.1%
- activity at 0.1 µM (1.5 h, read-out: cm.mito.90min): 98.3%
- viability at 0.1 µM (1.5 h, read-out: cm.tc.90min): 98.4%
- viability at 1 µM (1.5 h, read-out: cm.cam.90min): 102%
- activity at 1 µM (1.5 h, read-out: cm.mii.90min): 99.8%
- activity at 1 µM (1.5 h, read-out: cm.mito.90min): 102%
- viability at 1 µM (1.5 h, read-out: cm.tc.90min): 102%
- viability at 10 µM (1.5 h, read-out: cm.cam.90min): 95.4%
- activity at 10 µM (1.5 h, read-out: cm.mii.90min): 104%
- activity at 10 µM (1.5 h, read-out: cm.mito.90min): 95.4%
- viability at 10 µM (1.5 h, read-out: cm.tc.90min): 95.3%
- viability at 100 µM (1.5 h, read-out: cm.cam.90min): 99%
- activity at 100 µM (1.5 h, read-out: cm.mii.90min): 91.3%
- activity at 100 µM (1.5 h, read-out: cm.mito.90min): 99.3%
- viability at 100 µM (1.5 h, read-out: cm.tc.90min): 99.3%
- viability at 0.01 µM (24 h, read-out: cm.cam.24hrs): 97.1%
- activity at 0.01 µM (24 h, read-out: cm.mii.24hrs): 93.8%
- activity at 0.01 µM (24 h, read-out: cm.mito.24hrs): 95.4%
- viability at 0.01 µM (24 h, read-out: cm.tc.24hrs): 98%
- viability at 0.1 µM (24 h, read-out: cm.cam.24hrs): 105%
- activity at 0.1 µM (24 h, read-out: cm.mii.24hrs): 89.9%
- activity at 0.1 µM (24 h, read-out: cm.mito.24hrs): 105%
- viability at 0.1 µM (24 h, read-out: cm.tc.24hrs): 105%
- viability at 1 µM (24 h, read-out: cm.cam.24hrs): 101%
- activity at 1 µM (24 h, read-out: cm.mii.24hrs): 100%
- activity at 1 µM (24 h, read-out: cm.mito.24hrs): 99.9%
- viability at 1 µM (24 h, read-out: cm.tc.24hrs): 102%
- viability at 10 µM (24 h, read-out: cm.cam.24hrs): 103%
- activity at 10 µM (24 h, read-out: cm.mii.24hrs): 79.2%
- activity at 10 µM (24 h, read-out: cm.mito.24hrs): 104%
- viability at 10 µM (24 h, read-out: cm.tc.24hrs): 103%
- viability at 100 µM (24 h, read-out: cm.cam.24hrs): 97%
- activity at 100 µM (24 h, read-out: cm.mii.24hrs): 88.7%
- activity at 100 µM (24 h, read-out: cm.mito.24hrs): 97.8%
- viability at 100 µM (24 h, read-out: cm.tc.24hrs): 97.2%
- minimal effective concentration (1.5 h, read-out: cm.cam.90min POD): 100 µM
- minimal effective concentration (1.5 h, read-out: cm.mii.90min POD): 89.9 µM
- minimal effective concentration (1.5 h, read-out: cm.mito.90min POD): 100 µM
- minimal effective concentration (1.5 h, read-out: cm.tc.90min POD): 100 µM
- minimal effective concentration (24 h, read-out: cm.cam.24hrs POD): 100 µM
- minimal effective concentration (24 h, read-out: cm.mii.24hrs POD): 100 µM
- minimal effective concentration (24 h, read-out: cm.mito.24hrs POD): 100 µM
- minimal effective concentration (24 h, read-out: cm.tc.24hrs POD): 100 µM

Source: paper PMC7377239, “Cardiovascular Effects of Polychlorinated Biphenyls and Their Major Metabolites” (Environmental Health Perspectives, 2020)
